Laboratory results taken from patent US12612360B2 (Sanofi, priority 2020, dated 2026).

Molecular target: T1, ERα (Homo sapiens, UniProt P03372)
T1 construct: host or cells: MCF7
T1 sequence (P03372 1-595): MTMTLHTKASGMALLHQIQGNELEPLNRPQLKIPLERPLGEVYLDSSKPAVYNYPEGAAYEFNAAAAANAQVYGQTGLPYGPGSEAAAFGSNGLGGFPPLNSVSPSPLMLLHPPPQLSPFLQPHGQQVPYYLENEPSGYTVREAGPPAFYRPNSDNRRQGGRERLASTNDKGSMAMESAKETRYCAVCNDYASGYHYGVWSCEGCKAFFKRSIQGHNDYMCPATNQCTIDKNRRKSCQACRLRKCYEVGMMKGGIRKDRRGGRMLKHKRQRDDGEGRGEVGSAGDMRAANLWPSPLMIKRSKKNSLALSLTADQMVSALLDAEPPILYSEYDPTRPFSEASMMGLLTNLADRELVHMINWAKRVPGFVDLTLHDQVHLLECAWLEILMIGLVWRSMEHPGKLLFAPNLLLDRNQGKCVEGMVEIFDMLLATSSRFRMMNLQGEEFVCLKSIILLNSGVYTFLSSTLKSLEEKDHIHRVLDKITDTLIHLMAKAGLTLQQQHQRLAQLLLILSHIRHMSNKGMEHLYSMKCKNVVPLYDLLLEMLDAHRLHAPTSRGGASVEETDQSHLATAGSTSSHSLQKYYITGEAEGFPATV
Assay: Estrogen receptor degradation activity: breast cancer cell ERα in cell western assay (MCF7 cells)
Format: cell-based
Conditions: for % Degradation At 0.3 μM: 4 hours, relative to fulvestrant 0.1 μM positive control; for DC50: 4 hours post compound addition, concentration which degrades 50% of the estrogen receptor, read-out: Degradation IC50
Procedure: Test: Estrogen Receptor Degradation Activity Said test involves measuring the in vitro degradation activity of the compounds of the Table 1a. The measurements of the degradation activities were made using a breast cancer cell ERα in cell western assay as described hereunder. MCF7 cells (ATCC) were seeded in 384 wells microplate (collagen coated) at a concentration of 10000 cells/30 μL per well in red phenol free MEM alpha medium (invitrogen) containing 5% charcoal dextran striped FBS. The following day, 9 points serial 1:5 dilution of each compound was added to the cells in 2.5 μL at final concentrations ranging from […] (in table 2), or 0.1 μM for fulvestrant (using as positive control). At 4 hours post compound addition the cells were fixed by adding 25 μL of formalin (final concentration 5% formalin containing 0.1% triton) for 10 minutes at room temperature and then washed twice with PBS. Then, 50 μL of LI-COR blocking buffer containing 0.1% Triton was added to plate for 30 minutes at room temperature. LI-COR blocking buffer was removed and cells were incubated overnight at cold room with 50 μL anti-ER rabbit monoclonal antibody (Thermo scientific MA1-39540) diluted at 1:1000 in LI-COR blocking buffer containing 0.1% tween-20. Wells which were treated with blocking buffer but no antibody were used as background control. Wells were washed twice with PBS (0.1% tween-20) and incubated at 37° C. for 60 minutes in LI-COR (0.1% tween-20) containing goat anti-rabbit antibody Alexa 488 (1:1000) and Syto-64 a DNA dye (2 μM final concentration). Cells were then washed 3 times in PBS and scanned in ACUMEN explorer (TTP-Labtech). Integrated intensities in the green fluorescence and red fluorescence were measured to determine the levels of ERα and DNA respectively. The degradation activity with respect to estrogen receptors in this test is given by the concentration which degrades 50% of the estrogen receptor (or IC50) in nM. […] DMSO−fulvestrant)).

Compound	% Degradation At 0.3 μM	DC50
O=C(O)c1ccc2c(c1)CCCC(c1cccc(Cl)c1C(F)(F)F)=C2c1ccc(C=C2CN(CCC(F)F)C2)cc1 [Example 13, 8-(3-chloro-2-(trifluoromethyl)phenyl)-9-(4-((1-(3,3-difluoropropyl)azetidin-3-ylidene)methyl)phenyl)-6,7-dihydro-5H-benzo[7]annulene-3-carboxylic acid]	89%	0.5 nM
Cc1cc(C=C2CN(CCCF)C2)c(F)cc1C1=C(c2ccc(F)cc2F)CCCc2cc(C(=O)O)ccc21.Cl [Example 15, 8-(2,4-difluorophenyl)-9-(5-fluoro-4-((1-(3-fluoropropyl)azetidin-3-ylidene)methyl)-2-methylphenyl)-6,7-dihydro-5H-benzo[7]annulene-3-carboxylic acid hydrochloride]	87%	0.6 nM
Cc1c(C2=C(c3ccc(F)cc3F)CCCc3cc(C(=O)O)ccc32)ccc(C=C2CN(CCCF)C2)c1F.Cl [Example 17, 8-(2,4-difluorophenyl)-9-(3-fluoro-4-((1-(3-fluoropropyl)azetidin-3-ylidene)methyl)-2-methylphenyl)-6,7-dihydro-5H-benzo[7]annulene-3-carboxylic acid hydrochloride]	89%	0.5 nM
O=C(O)c1ccc2c(c1)CCCC(c1ncc(F)cc1C(F)(F)F)=C2c1ccc(C=C2CN(CCCF)C2)cc1 [Example 18, 8-(5-fluoro-3-(trifluoromethyl)pyridin-2-yl)-9-(4-((1-(3-fluoropropyl)azetidin-3-ylidene)methyl)phenyl)-6,7-dihydro-5H-benzo[7]annulene-3-carboxylic acid]	90%	0.6 nM
Cc1c(C2=C(c3ccc(C=C4CN(CCC(F)F)C4)cc3)c3ccc(C(=O)O)cc3CCC2)ccc(F)c1F [Example 22, 8-(3,4-difluoro-2-methylphenyl)-9-(4-((1-(3,3-difluoropropyl)azetidin-3-ylidene)methyl)phenyl)-6,7-dihydro-5H-benzo[7]annulene-3-carboxylic acid]	93%	0.5 nM
O=C(O)c1ccc2c(c1)CCCC(c1ccc(F)cc1C(F)(F)F)=C2c1ccc(C=C2CN(CCC(F)F)C2)cc1 [Example 25, 9-(4-((1-(3,3-difluoropropyl)azetidin-3-ylidene)methyl)phenyl)-8-(4-fluoro-2-(trifluoromethyl)phenyl)-6,7-dihydro-5H-benzo[7]annulene-3-carboxylic acid]	92%	0.5 nM
O=C(O)c1ccc2c(c1)CCCC(c1cccc(F)c1C(F)(F)F)=C2c1ccc(C=C2CN(CCC(F)F)C2)cc1 [Example 26, 9-(4-((1-(3,3-difluoropropyl)azetidin-3-ylidene)methyl)phenyl)-8-(3-fluoro-2-(trifluoromethyl)phenyl)-6,7-dihydro-5H-benzo[7]annulene-3-carboxylic acid]	91%	0.4 nM
Cc1cc(C2=C(c3ccc(F)cc3F)CCCc3cc(C(=O)O)ccc32)cc(F)c1C=C1CN(CCCF)C1 [Example 27, 8-(2,4-difluorophenyl)-9-(3-fluoro-4-((1-(3-fluoropropyl)azetidin-3-ylidene)methyl)-5-methylphenyl)-6,7-dihydro-5H-benzo[7]annulene-3-carboxylic acid]	92%	0.9 nM
Cc1cc(F)ccc1C1=C(c2cc(C)c(C=C3CN(CCCF)C3)c(F)c2)c2ccc(C(=O)O)cc2CCC1 [Example 28, 8-(4-fluoro-2-methylphenyl)-9-(3-fluoro-4-((1-(3-fluoropropyl)azetidin-3-ylidene)methyl)-5-methylphenyl)-6,7-dihydro-5H-benzo[7]annulene-3-carboxylic acid]	90%	1 nM
Cc1cc(F)ccc1C1=C(c2ccc(C=C3CN(CCCF)C3)c(F)c2C)c2ccc(C(=O)O)cc2CCC1 [Example 30, 8-(4-fluoro-2-methylphenyl)-9-(3-fluoro-4-((1-(3-fluoropropyl)azetidin-3-ylidene)methyl)-2-methylphenyl)-6,7-dihydro-5H-benzo[7]annulene-3-carboxylic acid]	91%	1.8 nM

Continued, values first:

% Degradation At 0.3 μM	DC50	Compound
91%	0.3 nM	Cc1cc(F)ccc1C1=C(c2ccc(C=C3CN(CCCF)C3)cc2F)c2ccc(C(=O)O)cc2CCC1 [Example 11, 8-(4-fluoro-2-methylphenyl)-9-(2-fluoro-4-((1-(3-fluoropropyl)azetidin-3-ylidene)methyl)phenyl)-6,7-dihydro-5H-benzo[7]annulene-3-carboxylic acid]
93%	0.4 nM	O=C(O)c1ccc2c(c1)CCCC(c1ccc(F)c3c1CCC3)=C2c1ccc(C=C2CN(CCCF)C2)cc1 [Example 12, 8-(7-fluoro-2,3-dihydro-1H-inden-4-yl)-9-(4-((1-(3-fluoropropyl)azetidin-3-ylidene)methyl)phenyl)-6,7-dihydro-5H-benzo[7]annulene-3-carboxylic acid]
88%	0.2 nM	Cc1c(C2=C(c3ccc(C=C4CN(CCCF)C4)cc3)c3ccc(C(=O)O)cc3CCC2)cccc1C(F)(F)F [Example 14]
93%	0.4 nM	O=C(O)c1ccc2c(c1)CCCC(c1ccc(C(F)(F)F)cc1C(F)(F)F)=C2c1ccc(C=C2CN(CCCF)C2)cc1 [Example 16, 8-(2,4-bis(trifluoromethyl)phenyl)-9-(4-((1-(3-fluoropropyl)azetidin-3-ylidene)methyl)phenyl)-6,7-dihydro-5H-benzo[7]annulene-3-carboxylic acid]
93%	0.2 nM	Cc1cc(F)ccc1C1=C(c2ccc(C=C3CN(CCC(F)F)C3)cc2)c2ccc(C(=O)O)cc2CCC1 [Example 19, 9-(4-((1-(3,3-difluoropropyl)azetidin-3-ylidene)methyl)phenyl)-8-(4-fluoro-2-methylphenyl)-6,7-dihydro-5H-benzo[7]annulene-3-carboxylic acid]
92%	0.3 nM	O=C(O)c1ccc2c(c1)CCCC(c1ccc(F)cc1F)=C2c1ccc(C=C2CN(CCC(F)F)C2)cc1 [Example 20, 8-(2,4-difluorophenyl)-9-(4-((1-(3,3-difluoropropyl)azetidin-3-ylidene)methyl)phenyl)-6,7-dihydro-5H-benzo[7]annulene-3-carboxylic acid]
93%	0.3 nM	O=C(O)c1ccc2c(c1)CCCC(c1c(F)cc(C(F)(F)F)cc1F)=C2c1ccc(C=C2CN(CCCF)C2)cc1 [Example 21, 8-(2,6-difluoro-4-(trifluoromethyl)phenyl)-9-(4-((1-(3-fluoropropyl)azetidin-3-ylidene)methyl)phenyl)-6,7-dihydro-5H-benzo[7]annulene-3-carboxylic acid]
96%	0.4 nM	O=C(O)c1ccc2c(c1)CCCC(c1cccc(Cl)c1C(F)(F)F)=C2c1ccc(C=C2CN(CCCF)C2)cc1 [Example 23, 8-(3-chloro-2-(trifluoromethyl)phenyl)-9-(4-((1-(3-fluoropropyl)azetidin-3-ylidene)methyl)phenyl)-6,7-dihydro-5H-benzo[7]annulene-3-carboxylic acid]
95%	0.2 nM	O=C(O)c1ccc2c(c1)CCCC(c1cccc(F)c1C(F)(F)F)=C2c1ccc(C=C2CN(CCCF)C2)cc1 [Example 24, 8-(3-fluoro-2-(trifluoromethyl)phenyl)-9-(4-((1-(3-fluoropropyl)azetidin-3-ylidene)methyl)phenyl)-6,7-dihydro-5H-benzo[7]annulene-3-carboxylic acid]
96%	0.3 nM	Cc1c(C2=C(c3ccc(C=C4CN(CCCF)C4)cc3)c3ccc(C(=O)O)cc3CCC2)ccc(F)c1F [Example 29, 8-(3,4-difluoro-2-methylphenyl)-9-(4-((1-(3-fluoropropyl)azetidin-3-ylidene)methyl)phenyl)-6,7-dihydro-5H-benzo[7]annulene-3-carboxylic acid]
